# Test results: patent US11820832B2, “Bispecific HER2 and CD3 binding molecules” (MEMORIAL SLOAN KETTERING CANCER CENTER, priority 2014, dated 2023)
# Legend:
# [1] = tested on: HeLa cervical carcinoma cells; assay: Cell proliferation assay (WST-8); assay type: cell-based, human; conditions: 10 nM kinase inhibitors, 10 μg/mL antibodies
# Experimental: (§1) Cell proliferation was determined using an ELISA plate reader and the WST-8 kit (Dojindo technologies) following the manufacturer's instructions and using the formula: % survival rate=(Sample-Background)/(Negative control-Background). Lapatinib (MSKCC pharmacy) was ground using a mortar and pestle and suspended in DMSO as previously described. To determine statistical significance, the results were analyzed using one-way ANOVA using Prism 6.0.
# (§2) For cell proliferation assays, 5,000 tumor cells were plated using RPMI-1640 supplemented with 10% FBS in a 96 well plate for 36 hours before being treated with lapatinib or the antibodies at the specified concentrations. Cell proliferation was determined using an ELISA plate reader and the WST-8 kit (Dojindo technologies) following the manufacturer's instructions and using the formula: % survival rate=(Sample-Background)/(Negative control-Background). Lapatinib (Memorial Sloan Kettering Cancer Center pharmacy) was ground using a mortar and pestle and suspended in DMSO as previously described (Chen et al., 2012, Molecular cancer therapeutics 11:660-669). To determine statistical significance, the results were analyzed using one-way ANOVA using Prism 6.0.
# (§3) For tumor cell proliferation, 5,000 tumor cells were plated using RPMI-1640 supplemented with 10% fetal bovine serum (“FBS”) in a 96 well plate for 36 hours before being treated with—kinase inhibitors or the antibodies at the specified concentration. Cell proliferation was determined using the cell counting WST-8 kit (Dojindo technologies) following the manufacturer's instructions and using the formula: % survival rate=(Sample-Background)/(Negative control-Background). Lapatinib was ground using a mortar and pestle and suspended in DMSO as previously described (Chen et al., Molecular cancer therapeutics 2012; 11:660-9). To determine statistical significance, the results were analyzed using one-way ANOVA using Prism 6.0.
# SCCHN cell line PCI-30 = assay: Cell proliferation assay (WST-8); assay type: cell-based, human; conditions: 10 nM kinase inhibitors, 10 μg/mL antibodies
# Experimental: as §1, §2, §3
# U2OS osteosarcoma cells = assay: Cell proliferation assay (WST-8); assay type: cell-based, human; conditions: 10 nM kinase inhibitors, 10 μg/mL antibodies
# Experimental: as §1, §2, §3
# [2] = tested on: HeLa cervical cancer cells; assay: HER2-BsAb redirected T cell cytotoxicity, 51Cr release assay; assay type: cell-based, human; conditions: pretreatment with lapatinib
# Experimental: (§4) The ^51Cr release assay was performed with effector T cells cultured in vitro in the presence of anti-CD3 and anti-CD28 for about 14 days. […] 5000 target cells/well were mixed with 50,000 effector cells (E:T=10:1) and BsAb antibodies in 96-well polystyrene round-bottom plates (BD Biosciences) to a final volume of 250 μl/well. The plates were incubated at 37° C. for 4 h. […] Percentage of specific release was calculated using the formula: (experimental cpm−background cpm)/(total cpm−background cpm)×100%, where cpm represented counts per minute of ^51Cr released. […] EC50 was calculated using SigmaPlot software.
# (§5) Cell cytotoxicity was assayed by ^51Cr release as previously described (Xu et al., Cancer immunology research 2015; 3:266-77), and EC50 was calculated using SigmaPlot software. Effector PBMC cells were purified from buffy coats purchased from the New York Blood Center. ATCs were first purified from human PBMC using Pan T cell isolation kit, and then activated and expanded for approximately 14 days with CD3/CD28 Dynabeads (Invitrogen) according to manufacturer's protocol.
# [3] = tested on: trastuzumab-sensitive breast carcinoma cell line SKBR3; assay: Cell proliferation assay (WST-8); assay type: cell-based, human; conditions: lapatinib 10 nM, 72 hours
# Experimental: as §1, §2, §3
# [4] = tested on: HCC1954 breast cancer xenografts; assay: Xenograft, subcutaneous tumor plus intravenous effector cells; assay type: in vivo, DKO mice; conditions: s.c. HCC1954; for tumor volume changes, PD1/PDL1 blockade resistant model: i.v. PBMC 7.5×10^6 once per week for 2 weeks, 100 μg each twice per week for 4 weeks
# From the text: For in vivo therapy studies, BALB-Rag2-/−IL-2R-γc-KO (“DKO”) mice (derived from colony of Dr. Mamoru Ito, CIEA, Kawasaki, Japan; see, e.g., Koo et al., 2009, Expert Rev Vaccines 8:113-20 and Andrade et al., 2011, Arthritis Rheum 63:2764-73) were used. […] Subcutaneous xenografts were created with 5×10^6 cells suspended in Matrigel (Corning Corp, Tewksbury Mass.) and implanted in the flank of DKO mice. Effector peripheral blood mononuclear cell (PBMC) cells were purified from buffy coats purchased from the New York Blood Center. Prior to every experimental procedure, PBMCs were analyzed for their percentage of CD3, CD4, CD8 and CD56 cells to ensure consistency. […] Tumor size was measured using (1) hand-held TM900 scanner (Pieira, Brussels, BE); (2) Calipers; or (3) bioluminescence. Bioluminescence imaging was conducted using the Xenogen In Vivo Imaging System (IVIS) 200 (Caliper LifeSciences). Briefly, mice were injected intravenously with 0.1 mL solution of D-luciferin (Gold Biotechnology; 30 mg/mL stock in PBS). Images were collected 1 to 2 minutes after injection using the following parameters: a 10- to 60-second exposure time, medium binning, and an 8 f/stop. Bioluminescence image analysis was performed using Living Image 2.6 (Caliper LifeSciences).
# For in vivo therapy studies, BALB-Rag2-/−IL-2R-γc-KO (DKO) mice (derived from colony of Dr. Mamoru Ito, CIEA, Kawasaki, Japan)(Koo et al., Expert Rev Vaccines 2009; 8:113-20; Andrade et al., Arthritis Rheum 2011; 63:2764-73) were used. […] Effector PBMC cells and ATCs were prepared as described above. Prior to every experimental procedure, PBMCs and ATCs were analyzed by FACS for their percentage of CD3, CD4, CD8 and CD56 cells to ensure consistency. […] Tumor size was measured using 1) hand-held TM900 scanner (Pieira, Brussels, BE), 2) Calipers, or 3) Bioluminescence. […]
# [5] = tested on: naïve T cells with or without NCI-N87 tumor cells; assay: Cytokine release assay with naive T cells; assay type: cell-based, human; conditions: 16.7 nM antibody, 24 hours
# Experimental: Cytokine release was assayed as previously described (Ahmed et al., Oncolmmunology 2015; 4:e989776), using naïve T cells prepared as described above. T cells (200,000/well) were cultured with or without NCI-N87 tumor cells (10,000/well) for 24 hours before supernatants being harvested for ELISA-based cytokine assay.
# naïve T cells = assay: T cell proliferation assay (WST-8); assay type: cell-based, human; conditions: 67 nM antibody, absence of tumor targets, 6 days
# Experimental: For T cell proliferation, naïve T cells were purified from human PBMC using Pan T cell isolation kit (Miltenyi Biotec). 2×10^5 purified T cells were mixed with different antibodies in 96-well cell culture plate to a final volume of 250 μl/well. T cells were cultured and maintained in RPMI-1640 supplemented with 10% FBS in 37° C. for 6 days. T cell proliferation was quantitated using the WST-8 kit as described above.
# CD3 = CD3 (Homo sapiens, UniProt P07766); assay: Binding affinity analysis by Biacore (Surface Plasmon Resonance); conditions: antigen CD3, Biacore
# Experimental: Binding assays were performed by Surface Plasmon Resonance using Biacore T100 similar as described in Okazaki et al., 2004, J Mol Biol; 336(5): 1239-1249.
# [6] = tested on: HER2(+) SCCHN cell line PCI-13; assay: Blocking of HER2-BsAb T-cell cytotoxicity by trastuzumab or huOKT3; assay type: cell-based, human; conditions: 0.1 μg/mL HER2-BsAb with 10 μg/mL blocking antibody
# Experimental: as §5
# HER2-positive cells = assay: Blocking of HER2-BsAb induced T cell cytotoxicity; assay type: cell-based, human; conditions: HER2-positive cells pre-incubated with blocking antibody
# Experimental: as §4
# Sequence of CD3 (P07766 23-126 limits assumed): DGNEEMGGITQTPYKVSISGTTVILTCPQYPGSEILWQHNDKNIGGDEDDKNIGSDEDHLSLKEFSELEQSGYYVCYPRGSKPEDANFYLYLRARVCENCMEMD
compound,measurement,setting,value
C#Cc1cccc(Nc2ncnc3cc(OCCOC)c(OCCOC)cc23)c1 [erlotinib],sensitivity of cells in proliferation assay,[1],pan-resistant
same,sensitivity of cells in proliferation assay,SCCHN cell line PCI-30,resistant
same,sensitivity of cells in proliferation assay,U2OS osteosarcoma cells,minimal sensitivity
CS(=O)(=O)CCNCc1ccc(-c2ccc3ncnc(Nc4ccc(OCc5cccc(F)c5)c(Cl)c4)c3c2)o1 [lapatinib],effect of pretreatment on HER2-BsAb mediated cytotoxicity,[2],increased sensitivity
same,sensitivity of cells in proliferation assay,[1],pan-resistant
same,sensitivity of cells in proliferation assay,SCCHN cell line PCI-30,resistant
same,sensitivity of cells in proliferation assay,U2OS osteosarcoma cells,minimal sensitivity
same,inhibition of cell proliferation (positive control),[3],strongest inhibition of cell proliferation
CCOc1cc2ncc(C#N)c(Nc3ccc(OCc4ccccn4)c(Cl)c3)c2cc1NC(=O)/C=C/CN(C)C [neratinib],sensitivity of cells in proliferation assay,[1],pan-resistant
same,sensitivity of cells in proliferation assay,SCCHN cell line PCI-30,resistant
same,sensitivity of cells in proliferation assay,U2OS osteosarcoma cells,minimal sensitivity
Atezolizumab,"tumor volume changes, PD1/PDL1 blockade resistant model",[4],no effect
Pembrolizumab,"tumor volume changes, PD1/PDL1 blockade resistant model",[4],no effect
huOKT3 Fab: monovalent Fab prepared from huOKT3 IgG1,cytokine release in the absence of tumor targets,[5],background cytokine release
same,T cell proliferation,naïve T cells,negligible effects
huOKT3 IgG1-aGlyco: parental aglycosylated huOKT3 IgG1,Kd,CD3,64.6 nM
same,koff,CD3,0.109 s⁻¹
same,kon,CD3,1.68e+06 M⁻¹ s⁻¹
"huOKT3: humanized OKT3 anti-CD3 IgG1, same variable sequences as in huOKT3 scFv",blocking of HER2-BsAb mediated T-cell cytotoxicity,[6],prevented
same,tumor growth,"[4]; i.v. PBMC once a week for 3 weeks, i.v. antibody twice a week for 3 weeks",only modest effects
same,cytokine release in the absence of tumor targets,[5],substantially more cytokines
same,T cell proliferation,naïve T cells,robust T cell proliferation
same,blocking of the ability of HER2-BsAb to induce T cell cytotoxicity,HER2-positive cells,blocked
